Values joined by “and” are separate entries in the source; they are usually repeats but may differ in a detail not shown here. Identical values can stand only once. Counter-ions that a name gives are not always drawn.
Experiments:
[1] = test system: Kelly neuroblastoma cells; test: Sulforhodamine B (SRB) cytotoxicity assay, Kelly neuroblastoma cells; format: cell-based; settings: for activity against Kelly neuroblastoma cells (in words): 72 h; for activity against Kelly neuroblastoma cells (in words) / Cell cytotoxicity (72 hr @ 500 μM) Kelly Neuroblastoma: 500 μM; for Cell cytotoxicity (72 hr @ 500 μM) Kelly Neuroblastoma: percent cytotoxicity; for cytotoxicity at 500 µM: Kelly, 72 hrs @500 µM, supplement csv, read-out: Kelly Neuroblasoma Cells (72 hrs @500 µM) %cytotoxicity
Experimental: (§1) Our strategy to identify novel ODC inhibitors was to first screen new analogs for ODC inhibition at 50 μM using our in vitro enzyme activity assay and purified human ODC (Table 1). Those showing significant inhibition were then titrated to provide an ODC IC50 followed by cell-based screening against both cancer (Kelly neuroblastoma) and noncancerous (neonatal fibroblasts) cell lines. For the cancer cell line, higher cytotoxicity was desired and for the noncancerous cell line counter screen, lower cytotoxicity was desired.
(§2) Normal primary human neonatal fibroblast cells (ATCC) were maintained in DMEM medium (Gibco) supplemented with 10% heat-inactivated fetal bovine serum (Hyclone), penicillin (100 IU/mL), and streptomycin (100 μg/mL), nonessential amino acids (0.1 mM) and sodium pyruvate (1 mM). Kelly neuroblastoma cells (Sigma-Aldrich) were maintained in RPMI medium (Corning) supplemented with 10% heat-inactivated fetal bovine serum (Hyclone), penicillin (100 IU/mL), and streptomycin (100 μg/mL). Cell lines were routinely monitored for mycoplasma contamination using the MycoAlert PLUS Mycoplasma Detection Kit (Lonza).
(§3) The colorimetric sulforhodamine B (SRB) assay was used to measure cytotoxicity following treatment with ODC inhibitors. Briefly, Kelly neuroblastoma cells and normal primary human neonatal fibroblast cells were plated in transparent flat 96-well plates and allowed to attach overnight. Cells were treated with control or 500 μM ODC inhibitor for 72 h. Cells were then fixed with 10% TCA at 4 °C for 1 h, washed with deionized water, and dried at room temperature. Cells were stained with 100 μL of 0.4% SRB in 1% acetic acid for 20 min at room temperature, rinsed five times with 1% acetic acid and allowed to dry at room temperature. One hundred μL of 10 mM Tris–HCl pH 7.0 was added to each well, shaken for 10 min at room temperature and absorbance was read at 540 nm. Absorbance values were normalized relative to control readings and converted to percentage by multiplying by one hundred. The percent cytotoxicity was then determined by subtracting the relative percentage of the ODC inhibitor treated readings from the control which is 100%.

[2] = molecular target: T1, purified human ODC enzyme (Homo sapiens, UniProt P11926); test: In vitro ODC enzyme activity assay; format: biochemical; settings: for inhibition at 50 µM: read-out: ODC biochemical inhibition % (50 μM); for IC50: read-out: ODC biochemical inhibition IC50; for lower activity relative to racemic 7: ratio of ODC IC50s
T1 construct: His6 (C); made in house; host or cells: E. coli BL21(DE3)
T1 sequence (P11926 1-461): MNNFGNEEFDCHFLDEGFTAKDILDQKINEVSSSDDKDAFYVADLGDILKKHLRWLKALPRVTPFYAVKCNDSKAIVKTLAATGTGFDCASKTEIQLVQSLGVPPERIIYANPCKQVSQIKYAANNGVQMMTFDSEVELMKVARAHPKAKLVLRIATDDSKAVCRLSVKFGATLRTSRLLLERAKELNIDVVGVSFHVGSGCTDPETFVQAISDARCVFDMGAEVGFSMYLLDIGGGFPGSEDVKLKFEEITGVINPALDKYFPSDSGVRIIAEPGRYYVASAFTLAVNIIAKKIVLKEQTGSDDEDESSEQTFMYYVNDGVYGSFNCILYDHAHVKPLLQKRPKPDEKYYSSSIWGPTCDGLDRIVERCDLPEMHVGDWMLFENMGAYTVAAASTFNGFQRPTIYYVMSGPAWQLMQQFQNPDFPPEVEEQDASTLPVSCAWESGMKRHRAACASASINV
Experimental: as §1
In vitro ODC activity was measured using 100 ng of purified human ODC enzyme, as we previously described.[53],[99] ODC was incubated with increasing concentrations of inhibitors for 30 min at room temperature in a buffer containing 25 mM Tris and 0.1 mM EDTA. […] In the cell-based ODC activity assay, Kelly neuroblastoma cells that were treated with 500 μM inhibitors were harvested in a buffer containing 25 mM Tris HCl, 0.1 mM EDTA, and 2.5 mM DTT. […] For both the in vitro and cell-based assay, the microcentrifuge tubes were then placed into scintillation vials containing a piece of filter paper saturated with 200 μL of 0.1 M NaOH to capture the release of radiolabeled carbon dioxide. The samples were incubated in a 37 °C incubator while shaking for 30 min (in vitro) or 2 h (cell-based). The enzymatic reaction was stopped by adding 250 μL of 5 M sulfuric acid to each sample and incubating at 37 °C while shaking for 30 min. The microcentrifuge tubes were removed from the scintillation vials, and 5 mL of scintillation fluid was added. Disintegrations per minute (DPM) of each sample was measured using a TriCarb liquid scintillation counter (PerkinElmer). The specific ODC activity is expressed as nmol CO2/min/mg protein (in vitro) or pmol CO2/min/mg protein (cell-based). The individual ODC inhibitor IC50 values were determined using Graphpad Prism 8.

[3] = Sulforhodamine B (SRB) cytotoxicity assay, neonatal fibroblasts; format: cell-based, human; settings: human, normal primary neonatal fibroblast cells; 72 hrs @500 µM; supplement csv
Experimental: as §1, §2, §3

[4] = test system: normal primary human neonatal fibroblast cells; test: as above; format: cell-based; settings: 500 μM; for cytotoxic activity against neonatal fibroblasts (in words): 72 h; for Cell cytotoxicity (72 hr @ 500 μM) Neonatal Fibroblasts: percent cytotoxicity
Experimental: as §1, §2, §3

[5] = test system: ODC; settings: even at high (>500 μM) concentrations; no reference given; cited from earlier work
[6] = cited from earlier work

| SMILES | activity against Kelly neuroblastoma cells (in words) [1] | Cell cytotoxicity (72 hr @ 500 μM) Kelly Neuroblastoma [1] [%] | LE ([2]; ligand efficiency) | inhibition at 50 µM [2] [%] | IC50 [2] | LE ([2]; supplement csv) | cytotoxicity at 72 h, 500 µM [3] [%] | cytotoxic activity against neonatal fibroblasts (in words) [4] | Cell cytotoxicity (72 hr @ 500 μM) Neonatal Fibroblasts [4] [%] | relative activity of S-enantiomer over R-enantiomer ([2]; 10-S-PLP vs 10-R-PLP, ODC IC50) [fold] | ODC inhibitory activity (in words) [2] | cytotoxicity at 500 µM [1] [%] | lower activity relative to racemic 7 [2] [x] | inhibition of ODC (in words) [5] | pKa of amino group ([6]; ornithine α-amino group, putrescine nitrogen) | pKa printed in Figure 1 ([6]; ornithine α-amino, putrescine) |
| --- | --- | --- | --- | --- | --- | --- | --- | --- | --- | --- | --- | --- | --- | --- | --- | --- |
| Cc1ncc(COP(=O)(O)O)c(/C=N/OC[C@@H]2CCNC2)c1O [10-R-PLP] | disappointing neuroblastoma cellular activities | 52±6 | 0.41 | 96 | 0.16 µM | 0,41 | 36 | generally more toxic | 36±17 | – | – | – | – | – | – | – |
| Cc1ncc(COP(=O)(O)O)c(/C=N/OC[C@H]2CCNC2)c1O [10-S-PLP, ({5-hydroxy-6-methyl-4-[(E)-({[(3S)-pyrrolidin-3-yl]methoxy}imino)methyl]pyridin-3-yl}methoxy)phosphonic acid] | disappointing neuroblastoma cellular activities | 11±4 | 0.47 | 93 | 0.03 µM | 0,47 | 40 | generally more toxic | 40±61 | 8 | – | – | – | – | – | – |
| Cc1ncc(COP(=O)(O)O)c(/C=N/OCC2(F)CCNC2)c1O (centres unmarked) [11-PLP, ({4-[(E)-{[(3-fluoropyrrolidin-3-yl)methoxy]imino}methyl]-5-hydroxy-6-methylpyridin-3-yl}methoxy)phosphonic acid] | disappointing neuroblastoma cellular activities | 9±13 | 0.41 | 92 | 0.09 µM | 0,41 | 57 | generally more toxic | 57±20 | – | – | – | – | – | – | – |
| Cc1ncc(COP(=O)(O)O)c(/C=N/OCCCN)c1O [APA-PLP, ({4-[(E)-[(3-Aminopropoxy)imino]methyl]-5-hydroxy-6-methylpyridin-3-yl}methoxy)phosphonic Acid] | disappointing neuroblastoma cellular activities | 24±9 | 0.45 | 99 | 0.15 µM | 0,45 | 12 | generally more toxic | 12±19 | – | – | – | – | – | – | – |
| NOCCC1CCCCN1 (centres unmarked) [Compound 6] | – | – | – | 3 | – | – | – | – | – | – | no ODC activity | – | – | – | – | – |
| NOCC1CCCNC1 (centres unmarked) [Compound 7, 3-[(Aminooxy)methyl]piperidine Dihydrochloride] | – | 54±9 | – | 99 | ~0.18 µM and 0.18 µM | – | 3 | reduced cytotoxic activity | 3±6 | – | – | 54 | – | – | – | – |
| NOC[C@@H]1CCCNC1 [Compound 7-R] | – | 49±5 | – | 99 | 0.77 µM | – | 0 | reduced cytotoxic activity | 0±14 | – | – | 49 | ~4 | – | – | – |
| NOC[C@H]1CCCNC1 [Compound 7-S] | – | 65±6 | – | 99 | 0.7 µM | – | 0 | reduced cytotoxic activity | 0±15 | – | – | 65 | ~4 | – | – | – |
| NOCC1CNCCO1 (centres unmarked) [Compound 8] | – | 37±11 | – | 95 | 0.78 µM | – | 0 | reduced cytotoxic activity | 0±11 | – | – | 37 | – | – | – | – |
| NOC1CCNCC1 [Compound 9] | – | – | – | 0 | – | – | – | – | – | – | no inhibitory activity | – | – | – | – | – |
| NOC[C@@H]1CCNC1 [Compound 10-R] | – | 73±12 | – | 99 | 0.21 µM | – | 16 | reduced cytotoxic activity | 16±13 | – | – | 73 | – | – | – | – |
| NOC[C@H]1CCNC1 [Compound 10-S] | – | 52±18 | – | 99 | 0.1 µM | – | 9 | reduced cytotoxic activity | 9±8 | – | – | 52 | – | – | – | – |
| NOCC1CCNC1 (centres unmarked) [Compound 10] | – | 66±8 | – | 99 | 0.36 µM | – | 14 | reduced cytotoxic activity | 14±10 | – | – | 66 | – | – | – | – |
| NCCCCN [putrescine] | – | – | – | – | – | – | – | – | – | – | – | – | – | not an inhibitor | ~10.5 | ~ 10 |
